{"source": "patent US20090148535A1", "about": "“METHOD FOR TREATING CANCER USING INTERFERENCE RNA” (MINERVA BIOTECHNOLOGIES CORPORATION, priority 2007, published 2009)", "assay_type_in_all_cases": "cell-based", "key": {"BTRes1 cells [1]": {"tested_on": "BTRes1 cells", "assay": "Cell death of BTRes1 cells with chemotherapeutic agents with or without Anti-MUC1* Fab (Trypan Blue exclusion)", "conditions": "for resistance of BTRes1 and restored killing effect with Anti-MUC1* Fab: 10 ug/ml Anti-MUC1* Fab", "description": "(§1) BT474, BTRes1 and BTRes2 cells were plated at 10,000 cells/well in 96 well plates, 4 wells/condition. The following day, Cyclophosphamide, Taxol, or Doxorubicin were added in varying concentrations, alone, or in the presence of 10 ug/ml Anti-MUC1* Fab or 10 ug/ml Control Fab. Cells were left untreated, or treated with either Fab alone as controls. Two days later, cells were resuspended in 50 ul trypsin, and counted in the presence of trypan blue. Percent cell death was calculated as percent trypan blue uptake."}, "BTRes1 cells [2]": {"tested_on": "BTRes1 cells", "assay": "Growth of siRNA-transfected BTRes1 cells in the presence of HERCEPTIN", "conditions": "HERCEPTIN 0-1 ug/ml, cell counts three days post-treatment", "description": "Percent Normalized Growth was then calculated: Percent Normalized Growth=[(Day 3 cell counts with Antibody Added )−(Zero-day cell counts)]/[(Day 3 Cell counts without antibody added)−(Zero-day cell counts)]×100%\n(§2) BT474 cells were transfected in triplicate with control siRNA (Santa Cruz Biotechnologies; sc-37007), and BTRes1 cells were transfected in triplicate with control or MUC1-specific siRNA (Santa Cruz Biotechnologies sc-35985). One microliter of 10 uM siRNA was added to 100 ul of OptiMEM medium (Invitrogen 22600134). Six microliters of HiPerfect reagent (Qiagen 301704) were then added to each tube. After vortexing, tubes were incubated at room temperature for 20 minutes. Meanwhile, cells were trypsinized, pelleted and resuspended in fresh RPMI without HERCEPTIN. 5×10^5 cells in 2.3 ml RPMI were combined with the OptiMEM with siRNA/HiPerfect complexes and added to a well of a 6 well plate. Two days later, cells were re-transfected by the same method, and plated in 96 well plates, at 10,000 cells/well, five wells/condition. Leftover cells were plated in six well plates. […] The following day, cells plated in 6 well plates were harvested and pelleted for Western analysis to evaluate siRNA efficacy. Three days later, cells were counted, and Percent Normalized Growth was calculated."}, "MUC1*": {"tested_on": "MUC1*", "assay": "Western blot of MUC1* after siRNA transfection", "conditions": "Western Blot after transient siRNA transfection", "description": "as §2"}, "BT474 cells": {"tested_on": "BT474 cells", "assay": "Cell death of BT474 cells with chemotherapeutic agents (Trypan Blue exclusion)", "conditions": "10 nM Taxol, two days post-treatment", "description": "as §1"}}, "data": [{"molecule": "O=P1(N(CCCl)CCCl)NCCCO1", "note": "(stereo not shown) [Cyclophospharnide, Cyclophosphamide]", "values": [{"measurement": "resistance of BTRes1 and restored killing effect with Anti-MUC1* Fab", "setting": "BTRes1 cells [1]; 10 uM drug", "value": "also observed"}]}, {"molecule": "MUC1 siRNA: MUC1-specific siRNA (Santa Cruz Biotechnologies sc-35985) (GCAGCCTCTCGATATAACCATCTCGAGGGGTTATATCGAGAGGCTGC; expressed or natural sequence)", "values": [{"measurement": "growth in the presence of HERCEPTIN of cells transfected with the siRNA", "setting": "BTRes1 cells [2]", "value": "reduced"}, {"measurement": "MUC1* level", "setting": "MUC1*", "value": "Down regulation"}]}, {"molecule": "CC(=O)O[C@H]1C(=O)[C@@]2(C)[C@H]([C@H](OC(=O)c3ccccc3)[C@]3(O)C[C@H](OC(=O)[C@H](O)[C@@H](NC(=O)c4ccccc4)c4ccccc4)C(C)=C1C3(C)C)[C@]1(OC(C)=O)CO[C@@H]1C[C@@H]2O", "note": "[Taxol]", "values": [{"measurement": "cell killing", "setting": "BT474 cells", "value": "effectively killed"}, {"measurement": "cell killing", "setting": "BTRes1 cells [1]; BTRes1, 10 nM Taxol alone, two days, compared to untreated cells", "value": "essentially unaffected"}, {"measurement": "killing effect with Anti-MUC1* Fab", "setting": "BTRes1 cells [1]; BTRes1, 10 nM Taxol and 10 ug/ml Anti-MUC1* Fab", "value": "restored"}]}, {"molecule": "COc1cccc2c1C(=O)c1c(O)c3c(c(O)c1C2=O)C[C@@](O)(C(=O)CO)C[C@@H]3O[C@H]1C[C@H](N)[C@H](O)[C@H](C)O1", "note": "[Doxorubicin]", "values": [{"measurement": "resistance of BTRes1 and restored killing effect with Anti-MUC1* Fab", "setting": "BTRes1 cells [1]; 1 uM drug", "value": "also observed"}]}]}
